Experimental data taken from patent US10285382B2 (priority 2017, dated 2019).
Values joined by “and” are separate entries in the source; they are usually repeats but may differ in a detail not shown here. Equal values may be shown once. Read-outs that look alike come from different tables or passages of the source.

Key:
[1] = tested on: chicks
Text: The chicks hatched according to the methods of Examples 2 and 3 are shipped to a broiler facility and raised to maturity. No additional changes to grow-out methods are made. A total of about 4 million eggs are set per month and the saleable chicks are sent to the grow-out facility. […] The wholesale price of a broiler is currently estimated at $0.85 per pound. […] See the http:///.nationalchickencouncil.org available on the web.

[2] = tested on: Influenza A (H1N1)
Method: Glass slides (1″×3″) are ethanol-sanitized and autoclaved prior to testing. The slides (carriers) are placed into sterile plastic petri dishes until use. Aliquots (0.010 ml) of diluted stock Influenza A (H1N1) are aseptically spread over a 1″×1″ square area of the carrier slide to prepare a virus film.
Virus Control carriers are placed into an adjacent modular room with the lids removed. One additional glass slide (with no virus film) is also placed into each testing chamber to perform cytotoxicity and neutralization validation controls. Upon closure of the respective study contact times (T=60 min and T=120 min), duplicate carriers are removed from each testing chamber. Duplicate carriers are also removed from the control modular room at each time point. Duplicate time zero carriers are harvested and enumerated promptly by eluting the films with 2 ml of Influenza Infection Medium. Serial dilutions (1:10) are performed and dilutions 10^−1 to 10^−5 are plated in quadruplicate onto Madin-Darby Canine Kidney (MDCK) cell monolayers prepared to suitable confluency. Cell culture assay trays are incubated at 35° C. on an orbital rotator (60 rotations/minute) for 60 minutes to facilitate viral-host adsorption. Trays are removed from incubation, and Influenza infection Media is pipetted into each well (˜1.0 ml). The trays are incubated for 7 days. The assay trays are observed regularly for the presence of cytotoxicity, viral cytopathic effects, and contamination. At the end of 7 days, plates are scored and the Spearman-Karber Method is used to compute viral titers and levels of cytotoxicity.

[3] = tested on: Aspergillus fumigatus
Text: (§1) Hatcheries and chick production facilities are subject to heavy bacterial loads that are difficult to control. In addition to the animals themselves, there is a significant contamination of the facilities from the outside.

[4] = tested on: Other blue green
Text: as §1

[5] = tested on: Total bacteria
Text: as §1

[6] = tested on: hatching eggs
[7] = tested on: flies and other unwanted insects
Text: In addition to the incoming eggs, the egg room includes excess shipping boxes and pallets.

[8] = tested on: Salmonella; settings: hatchery environment (egg room and incubators); after 28 days
[9] = tested on: S. aureus ATCC 33592 (MRSA)
[10] = tested on: E. coli K12; settings: for % Reduction vs. Control / Log10 reduction / Log10 reduction vs. Control / Percent reduction: DHP (+)
[11] = tested on: MS2 Bacteriophage ATCC 15597-B1; settings: DHP (+); 1 hour
[12] = tested on: bacteria growing on TSA; settings: for number of bacteria growing on TSA: test room, DHP about 0.1 ppm, FIGS. 13A-B
[13] = tested on: Gram-negative enteric bacilli; settings: egg cooler conditions
[14] = tested on: salmonellae; settings: egg cooler conditions; during the trial
[15] = tested on: bacteria; settings: end of test period (0, 7, and 30 days), three locations; from about 70 total; FIGS. 9A-C
Method: In addition, bacterial contamination in the egg room is assessed by placing blood agar plates at three locations in the room (East, North, and West) at 0, 7, and 30 days, and bacterial growth is assessed after 24 hours.

[16] = Hood Chamber, 60 minutes contact
[17] = Hood Chamber, 120 minutes contact
[18] = Modular Room, 60 minutes contact, DHP 0.6 to 1.0 ppm
[19] = Modular Room, 120 minutes contact, DHP 0.6 to 1.0 ppm
[20] = 6 Hours contact, Hood (Treated)
[21] = 6 Hours contact, Room (Treated)
[22] = 24 Hours contact, Hood (Treated)
[23] = 24 Hours contact, Room (Treated)
[24] = 48 Hours contact, Hood (Treated)
[25] = 48 Hours contact, Room (Treated)

Structure (SMILES): OO [DHP, dry hydrogen peroxide]
- Mortality Rate ([1]; After DHP treatment, grow-out facility): 2.2%
- Net increase (# Broilers) ([1]; After DHP treatment, per month): 308,678
- reduction of mortality ([1]; at the grow-out facility): about 7.8%
- increase in overall production ([1]; per month): over 300,000 broilers
- % Reduction [2, 16]: 99.8%
- Log10 reduction [2, 16]: >=2.62
- % Reduction [2, 17]: 98.6%
- Log10 reduction [2, 17]: >=1.87
- % Reduction [2, 18]: 87%
- Log10 reduction [2, 18]: 0.87
- % Reduction [2, 19]: 76%
- Log10 reduction [2, 19]: 0.62
- Kill [3]: 49999
- Reduction [3]: 99.99%
- Post ([3]; hatchery after DHP): 1
- Kill [4]: 49983
- Reduction [4]: 99.89%
- Post ([4]; hatchery after DHP): 56
- reduction of bacterial loads in hatcheries ([5]; DHP treatment): over 90%
- Kill ([5]; Total (sum of all categories)): 650019
- Post ([5]; Total (sum of all categories)): 50167
- Kill ([5]; Total bacteria): 550037
- Reduction ([5]; Total bacteria): 91.65%
- Post ([5]; Total bacteria, hatchery after DHP): 50110
- Percent Saleable Chicks ([6]; After DHP treatment): 80.82%
- Saleable Chick (average) ([6]; After DHP treatment, 4,000,000 eggs set per month): 3,318,400
- Net increase (# Chicks) ([6]; After DHP treatment, from each 4,000,000 eggs set): 62,000
- After Modification Cull Rate (%) ([6]; August 2016): 1.58%
- After Modification First Quality Chick (% Hatched) ([6]; August 2016): 79.90%
- After Modification Cull Rate (%) ([6]; Average June-November 2016): 1.65%
- After Modification First Quality Chick (% Hatched) ([6]; Average June-November 2016): 80.82%
- cull rate lower than the cull rate before DHP modification ([6]; DHP modified egg room): at least 1%
- After Modification Cull Rate (%) ([6]; July 2016): 1.88%
- After Modification First Quality Chick (% Hatched) ([6]; July 2016): 79.78%
- After Modification Cull Rate (%) ([6]; June 2016): 2.09%
- After Modification First Quality Chick (% Hatched) ([6]; June 2016): 78.62%
- After Modification Cull Rate (%) ([6]; November 2016): 1.41%
- After Modification First Quality Chick (% Hatched) ([6]; November 2016): 82.96%
- After Modification Cull Rate (%) ([6]; October 2016): 1.32%
- After Modification First Quality Chick (% Hatched) ([6]; October 2016): 82.55%
- After Modification Cull Rate (%) ([6]; September 2016): 1.63%
- After Modification First Quality Chick (% Hatched) ([6]; September 2016): 81.09%
- percent hatching of first quality chicks ([6]; after installation of DHP to the setter incubator environment (room about 0.5 ppm), FIG. 6): 83%
- cull rate ([6]; eggs incubated under DHP conditions, FIG. 7): continues to drop
- additional birds available for shipping to the grow-out facility ([6]; installation of DHP in the egg room): about 4,000 birds
- elimination of flies and other unwanted insects ([7]; egg room, DHP between 0.1 ppm and 0.2 ppm): sufficient to eliminate
- elimination of flies and other unwanted insects, both flying and non-flying ([7]; incorporation of DHP into the egg room): eliminates
- flying insects in the facility ([7]; within the first couple days of applying DHP to the poultry space): virtually eliminated
- reduction of Salmonella on the egg surface [8]: 83.3%
- % Reduction compared to Control [9, 20]: 95.150%
- Average CFU/Carrier [9, 20]: 2.51E+05 CFU/Carrier
- Log Reduction compared to Control [9, 20]: 1.31
- Replicate CFU/Carrier [9, 20]: 1.62E+05 CFU/Carrier and 3.40E+05 CFU/Carrier
- % Reduction compared to Control [9, 21]: 83.053%
- Average CFU/Carrier [9, 21]: 8.77E+05 CFU/Carrier
- Log Reduction compared to Control [9, 21]: 0.77
- Replicate CFU/Carrier [9, 21]: 2.54E+05 CFU/Carrier and 1.50E+06 CFU/Carrier
- % Reduction compared to Control [9, 22]: >66.667%
- Average CFU/Carrier [9, 22]: <1.50E+01 CFU/Carrier
- Log Reduction compared to Control [9, 22]: >0.48
- Replicate CFU/Carrier [9, 22]: 2.50E+01 CFU/Carrier and <5.00E+00 CFU/Carrier
- % Reduction compared to Control [9, 23]: >88.889%
- Average CFU/Carrier [9, 23]: <5.00E+00 CFU/Carrier
- Log Reduction compared to Control [9, 23]: >0.95
- Replicate CFU/Carrier [9, 23]: 5.00E+00 CFU/Carrier and <5.00E+00 CFU/Carrier
- % Reduction compared to Control [9, 24]: >78.947%
- Average CFU/Carrier [9, 24]: <1.00E+01 CFU/Carrier
- Log Reduction compared to Control [9, 24]: >0.68
- % Reduction compared to Control [9, 25]: >89.474%
- Average CFU/Carrier [9, 25]: <5.00E+00 CFU/Carrier
- Log Reduction compared to Control [9, 25]: >0.98
- Replicate CFU/Carrier [9, 25]: <5.00E+00 CFU/Carrier
- % Reduction vs. Control ([10]; 1 hour): 99.8%
- Log10 reduction ([10]; 1 hour): >4.78
- Log10 reduction vs. Control ([10]; 1 hour): 2.82
- Percent reduction ([10]; 1 hour): >99.9984%
- % Reduction vs. Control ([10]; 2 hours): 98.1%
- Log10 reduction ([10]; 2 hours): >4.79
- Log10 reduction vs. Control ([10]; 2 hours): 1.71
- Percent reduction ([10]; 2 hours): >99.9984%
- aerosolized bacteria in the DHP treated space ([10]; within one hour): essentially eliminated
- % Reduction vs. Control [11]: 99.8%
- Log10 reduction [11]: 3.54
- Log10 reduction vs. Control [11]: 2.70
- Percent reduction [11]: 99.97%
- TSA growth ([12]; egg cooler conditions, treatment, 0 to 120 hours): static until 120 hours
- number of bacteria growing on TSA ([12]; after 72 hours (P=0.05)): significantly reduced
- number of bacteria growing on TSA ([12]; after 120 hours (P=0.05)): significantly reduced
- growth on Mac at 72 hours compared to 0 hours ([13]; treated group, FIG. 14): significantly less growth
- Mac growth ([13]; treatment, 0 to 120 hours): low throughout
- growth of Salmonella on the XLT-4 [14]: No growth
- number of bacterial colonies on the blood agar plates, total [15]: about 30
